How the values were obtained:
Test in all cases: relative viability (nuclei count vs DMSO), 5 days (fraction); higher = more cells survive
[1] = tested on: NCI-H2228
In short: (§1)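 One day after seeding in 1536-well plates, lung cancer cell lines were dosed by pin tool. Dosing was either single-drug or a fixed anchor-drug dose plus five library-drug doses (not always all listed) in √10 steps. After 5 days, nuclei were stained in one fix-and-stain step and counted on 4× images, and relative viability is the nuclei count of treated wells over that of vehicle wells, given as the median of duplicate plates.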

[2] = tested on: UMC-11
In short: as §1

[3] = tested on: LC-2-ad
In short: as §1

[4] = tested on: ABC-1
In short: as §1

[5] = tested on: NCI-H1755
In short: as §1

[6] = tested on: NCI-H1651
In short: as §1

[7] = tested on: NCI-H3122
In short: as §1

[8] = tested on: LU99A
In short: as §1

[9] = tested on: CAL-12T
In short: as §1

[10] = tested on: NCI-H2405
In short: as §1

[11] = tested on: NCI-H2087
In short: as §1

[12] = tested on: ChaGo-K-1
In short: as §1

[13] = tested on: RERF-LC-KJ
In short: as §1

[14] = tested on: NCI-H460
In short: as §1

[15] = tested on: HCC-78
In short: as §1

[16] = tested on: PC-3 [JPC-3]
In short: as §1

[17] = tested on: LOU-NH91
In short: as §1

[18] = tested on: HCC-366
In short: as §1

Compound: COc1cc2nccc(Oc3ccc(NC(=O)Nc4cc(C)on4)c(Cl)c3)c2cc1OC [Tivozanib] + CC(C)C[C@H](NC(=O)[C@H](Cc1ccccc1)NC(=O)c1cnccn1)B(O)O [Bortezomib] (partner 0.002 µM)
- relative viability ([1]; first compound 0.005 µM): 0.86
- relative viability ([1]; first compound 0.01581 µM): 0.859
- relative viability ([1]; first compound 0.05 µM): 1.02
- relative viability ([1]; first compound 0.1581 µM): 0.887
- relative viability ([1]; first compound 0.5 µM): 0.972
- relative viability ([2]; first compound 0.005 µM): 0.579
- relative viability ([2]; first compound 0.01581 µM): 0.723
- relative viability ([2]; first compound 0.05 µM): 0.911
- relative viability ([2]; first compound 0.5 µM): 0.668
- relative viability ([3]; first compound 0.005 µM): 0.951
- relative viability ([3]; first compound 0.01581 µM): 1.04
- relative viability ([3]; first compound 0.05 µM): 0.971
- relative viability ([3]; first compound 0.1581 µM): 0.867
- relative viability ([3]; first compound 0.5 µM): 0.843
- relative viability ([4]; first compound 0.005 µM): 0.315
- relative viability ([4]; first compound 0.01581 µM): 0.3
- relative viability ([4]; first compound 0.05 µM): 0.277
- relative viability ([4]; first compound 0.1581 µM): 0.304
- relative viability ([4]; first compound 0.5 µM): 0.288
- relative viability ([5]; first compound 0.005 µM): 0.911
- relative viability ([5]; first compound 0.01581 µM): 0.935
- relative viability ([5]; first compound 0.05 µM): 1.01
- relative viability ([5]; first compound 0.1581 µM): 0.577
- relative viability ([5]; first compound 0.5 µM): 0.86
- relative viability ([6]; first compound 0.005 µM): 0.895
- relative viability ([6]; first compound 0.01581 µM): 0.985
- relative viability ([6]; first compound 0.05 µM): 1.02
- relative viability ([6]; first compound 0.1581 µM): 0.865
- relative viability ([6]; first compound 0.5 µM): 0.986
- relative viability ([7]; first compound 0.005 µM): 0.99
- relative viability ([7]; first compound 0.01581 µM): 1.02
- relative viability ([7]; first compound 0.05 µM): 1.08
- relative viability ([7]; first compound 0.1581 µM): 1.12
- relative viability ([7]; first compound 0.5 µM): 1.04
- relative viability ([8]; first compound 0.005 µM): 1.15
- relative viability ([8]; first compound 0.01581 µM): 1.07
- relative viability ([8]; first compound 0.05 µM): 1.29
- relative viability ([8]; first compound 0.5 µM): 1.06
- relative viability ([9]; first compound 0.005 µM): 0.86
- relative viability ([9]; first compound 0.01581 µM): 0.967
- relative viability ([9]; first compound 0.05 µM): 1.14
- relative viability ([9]; first compound 0.5 µM): 1.03
- relative viability ([10]; first compound 0.005 µM): 0.87
- relative viability ([10]; first compound 0.01581 µM): 1.01
- relative viability ([10]; first compound 0.05 µM): 1.05
- relative viability ([10]; first compound 0.1581 µM): 1.02
- relative viability ([10]; first compound 0.5 µM): 0.886
- relative viability ([11]; first compound 0.005 µM): 0.644
- relative viability ([11]; first compound 0.01581 µM): 0.919
- relative viability ([11]; first compound 0.05 µM): 0.842
- relative viability ([11]; first compound 0.1581 µM): 0.77
- relative viability ([11]; first compound 0.5 µM): 0.739
- relative viability ([12]; first compound 0.005 µM): 0.907
- relative viability ([12]; first compound 0.01581 µM): 1.08
- relative viability ([12]; first compound 0.05 µM): 1
- relative viability ([12]; first compound 0.1581 µM): 0.969
- relative viability ([12]; first compound 0.5 µM): 0.935
- relative viability ([13]; first compound 0.005 µM): 1.11
- relative viability ([13]; first compound 0.01581 µM): 1.06
- relative viability ([13]; first compound 0.05 µM): 1.11
- relative viability ([13]; first compound 0.1581 µM): 0.83
- relative viability ([13]; first compound 0.5 µM): 1.03
- relative viability ([14]; first compound 0.005 µM): 1.13
- relative viability ([14]; first compound 0.01581 µM): 1.04
- relative viability ([14]; first compound 0.05 µM): 1
- relative viability ([14]; first compound 0.1581 µM): 1.12
- relative viability ([14]; first compound 0.5 µM): 1.03
- relative viability ([15]; first compound 0.005 µM): 0.383
- relative viability ([15]; first compound 0.01581 µM): 0.496
- relative viability ([15]; first compound 0.05 µM): 0.57
- relative viability ([15]; first compound 0.1581 µM): 0.549
- relative viability ([15]; first compound 0.5 µM): 0.452
- relative viability ([16]; first compound 0.005 µM): 0.82
- relative viability ([16]; first compound 0.01581 µM): 0.855
- relative viability ([16]; first compound 0.05 µM): 0.847
- relative viability ([16]; first compound 0.1581 µM): 0.835
- relative viability ([16]; first compound 0.5 µM): 0.794
- relative viability ([17]; first compound 0.005 µM): 0.5
- relative viability ([17]; first compound 0.01581 µM): 0.489
- relative viability ([17]; first compound 0.05 µM): 0.722
- relative viability ([17]; first compound 0.1581 µM): 0.561
- relative viability ([17]; first compound 0.5 µM): 0.499
- relative viability ([18]; first compound 0.005 µM): 1.01
- relative viability ([18]; first compound 0.01581 µM): 1.05
- relative viability ([18]; first compound 0.05 µM): 1.06
- relative viability ([18]; first compound 0.1581 µM): 1.05
- relative viability ([18]; first compound 0.5 µM): 1.05

Compound: Cc1sc2c(c1C)C(c1ccc(Cl)cc1)=N[C@@H](CC(=O)OC(C)(C)C)c1nnc(C)n1-2 [JQ1] + CC(C)C[C@H](NC(=O)[C@H](Cc1ccccc1)NC(=O)c1cnccn1)B(O)O [Bortezomib] (partner 0.002 µM)
- relative viability ([1]; first compound 0.04 µM): 0.764
- relative viability ([1]; first compound 0.1265 µM): 0.918
- relative viability ([1]; first compound 0.4 µM): 0.609
- relative viability ([1]; first compound 1.265 µM): 0.245
- relative viability ([1]; first compound 4 µM): 0.185
- relative viability ([2]; first compound 0.04 µM): 0.708
- relative viability ([2]; first compound 0.1265 µM): 0.522
- relative viability ([2]; first compound 0.4 µM): 0.367
- relative viability ([2]; first compound 1.265 µM): 0.216
- relative viability ([2]; first compound 4 µM): 0.136
- relative viability ([3]; first compound 0.04 µM): 0.853
- relative viability ([3]; first compound 0.1265 µM): 0.391
- relative viability ([3]; first compound 0.4 µM): 0.787
- relative viability ([3]; first compound 1.265 µM): 0.131
- relative viability ([3]; first compound 4 µM): 0.109
- relative viability ([4]; first compound 0.04 µM): 0.306
- relative viability ([4]; first compound 0.1265 µM): 0.233
- relative viability ([4]; first compound 0.4 µM): 0.329
- relative viability ([4]; first compound 1.265 µM): 0.332
- relative viability ([4]; first compound 4 µM): 0.272
- relative viability ([5]; first compound 0.04 µM): 0.923
- relative viability ([5]; first compound 0.1265 µM): 0.807
- relative viability ([5]; first compound 0.4 µM): 0.995
- relative viability ([5]; first compound 1.265 µM): 0.618
- relative viability ([5]; first compound 4 µM): 0.44
- relative viability ([6]; first compound 0.04 µM): 0.919
- relative viability ([6]; first compound 0.1265 µM): 0.781
- relative viability ([6]; first compound 0.4 µM): 0.842
- relative viability ([6]; first compound 1.265 µM): 0.9
- relative viability ([6]; first compound 4 µM): 0.635
- relative viability ([7]; first compound 0.04 µM): 1.01
- relative viability ([7]; first compound 0.1265 µM): 0.998
- relative viability ([7]; first compound 0.4 µM): 1.03
- relative viability ([7]; first compound 1.265 µM): 0.996
- relative viability ([7]; first compound 4 µM): 0.905
- relative viability ([8]; first compound 0.04 µM): 1.32
- relative viability ([8]; first compound 0.1265 µM): 0.8
- relative viability ([8]; first compound 0.4 µM): 0.802
- relative viability ([8]; first compound 1.265 µM): 0.426
- relative viability ([8]; first compound 4 µM): 0.265
- relative viability ([9]; first compound 0.04 µM): 1.06
- relative viability ([9]; first compound 0.4 µM): 0.638
- relative viability ([9]; first compound 1.265 µM): 0.415
- relative viability ([9]; first compound 4 µM): 0.317
- relative viability ([10]; first compound 0.04 µM): 1.07
- relative viability ([10]; first compound 0.1265 µM): 0.628
- relative viability ([10]; first compound 0.4 µM): 1.03
- relative viability ([10]; first compound 1.265 µM): 0.827
- relative viability ([10]; first compound 4 µM): 0.678
- relative viability ([11]; first compound 0.04 µM): 0.832
- relative viability ([11]; first compound 0.4 µM): 0.943
- relative viability ([11]; first compound 1.265 µM): 0.553
- relative viability ([11]; first compound 4 µM): 0.416
- relative viability ([12]; first compound 0.04 µM): 1.09
- relative viability ([12]; first compound 0.4 µM): 1.06
- relative viability ([12]; first compound 1.265 µM): 0.493
- relative viability ([12]; first compound 4 µM): 0.373
- relative viability ([13]; first compound 0.04 µM): 1.17
- relative viability ([13]; first compound 0.1265 µM): 1.11
- relative viability ([13]; first compound 0.4 µM): 1.13
- relative viability ([13]; first compound 1.265 µM): 0.52
- relative viability ([13]; first compound 4 µM): 0.415
- relative viability ([14]; first compound 0.04 µM): 1.05
- relative viability ([14]; first compound 0.1265 µM): 0.611
- relative viability ([14]; first compound 0.4 µM): 0.456
- relative viability ([14]; first compound 1.265 µM): 0.224
- relative viability ([14]; first compound 4 µM): 0.212
- relative viability ([15]; first compound 0.04 µM): 0.53
- relative viability ([15]; first compound 0.1265 µM): 0.453
- relative viability ([15]; first compound 0.4 µM): 0.231
- relative viability ([15]; first compound 1.265 µM): 0.19
- relative viability ([15]; first compound 4 µM): 0.172
- relative viability ([16]; first compound 0.04 µM): 0.845
- relative viability ([16]; first compound 0.1265 µM): 0.81
- relative viability ([16]; first compound 0.4 µM): 0.977
- relative viability ([16]; first compound 1.265 µM): 0.675
- relative viability ([16]; first compound 4 µM): 0.352
- relative viability ([17]; first compound 0.04 µM): 0.525
- relative viability ([17]; first compound 0.1265 µM): 0.476
- relative viability ([17]; first compound 0.4 µM): 0.428
- relative viability ([17]; first compound 1.265 µM): 0.3
- relative viability ([17]; first compound 4 µM): 0.327
- relative viability ([18]; first compound 0.04 µM): 1.08
- relative viability ([18]; first compound 0.4 µM): 1.03
- relative viability ([18]; first compound 1.265 µM): 0.585
- relative viability ([18]; first compound 4 µM): 0.23

Source: the supplement of paper PMC10307832
